# *1 amine or outer side, *2 acyl side, *3 side chain or, on linkers, in order; H or OH if unused. Where a SMILES comes first, the peptide text is derived from it. Bridges are numbered along the chain shown (N, C = ends). [ ]: non-standard residue; d: D form. The star is where a group is joined. ξ: configuration not given here. Phe(3-CF3) = N[C@@H](Cc1cccc(C(F)(F)F)c1)C(=O)O; Phe(4-CF3) = N[C@@H](Cc1ccc(C(F)(F)F)cc1)C(=O)O; Ala(morpholin-4-yl) = N[C@@H](CN1CCOCC1)C(=O)O; Phe(4-COOH) = N[C@@H](Cc1ccc(C(=O)O)cc1)C(=O)O; Bip = N[C@@H](Cc1ccc(-c2ccccc2)cc1)C(=O)O; NH(CH2)14COOH = O=C(O)CCCCCCCCCCCCCCN*; Phe(3-Me) = Cc1cccc(C[C@H](N)C(=O)O)c1; γGlu = O=C(O)[C@H](CCC(=O)[*:2])N[*:1]; NH(CH2)12COOH = O=C(O)CCCCCCCCCCCCN*; Val(3-OH) = CC(C)(O)[C@H](N)C(=O)O; aIle = CC[C@@H](C)[C@H](N)C(=O)O; hArg = N=C(N)NCCCC[C@H](N)C(=O)O; 4Pal = N[C@@H](Cc1ccncc1)C(=O)O; Cha = N[C@@H](CC1CCCCC1)C(=O)O; Cit = NC(=O)NCCC[C@H](N)C(=O)O; Thr(3ξ) = CC(O)[C@H](N)C(=O)O; 12Ado = NCCCCCCCCCCCC(=O)O; Carboxymethyl = O=C(O)C*; NMeA = CN[C@@H](C)C(=O)O; Orn = NCCC[C@H](N)C(=O)O; Aun = NCCCCCCCCCCC(=O)O; Dab = NCC[C@H](N)C(=O)O; Dap = NC[C@H](N)C(=O)O; AEEA = NCCOCCOCC(=O)O
# Target: T1, PD-1/PD-L1 interaction (PE-labeled human PD-L1-Ig binding to Jurkat cell line over-expressing human PD-1) (Homo sapiens, UniProt Q15116)
# T1 construct: expressed in transfected cells; host or cells: Jurkat
# Test: Jurkat-PD-1 Cell Binding High-Content Screening Assay (CBA)
# Conditions: Jurkat-hPD-1 cells, PE-labeled PD-L1-Ig 20 nM final; read-out: Jurkat HPD1 PDL1 IC50
# How it was run: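 High-content imaging read-out of PE-PD-L1-Ig binding (20 nM final, 1 h) to Jurkat-hPD-1 cells, after 2 h compound exposure at 37 °C in DMEM with 10% FCS. Nuclei counterstained with Hoechst 33342 after paraformaldehyde fixation.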
# T1 sequence (Q15116 25-288): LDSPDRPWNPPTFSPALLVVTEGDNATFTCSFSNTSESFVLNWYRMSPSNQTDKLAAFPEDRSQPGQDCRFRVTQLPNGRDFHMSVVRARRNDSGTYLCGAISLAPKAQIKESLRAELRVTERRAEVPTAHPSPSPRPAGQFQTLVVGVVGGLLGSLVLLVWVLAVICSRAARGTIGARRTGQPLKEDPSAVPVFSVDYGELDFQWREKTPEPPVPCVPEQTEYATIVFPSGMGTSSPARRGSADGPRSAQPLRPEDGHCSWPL
row,IC50 [nM],SMILES
1,28.2,CC(C)C[C@@H]1NC(=O)[C@H](Cc2c[nH]c3ccccc23)NC(=O)[C@H](CC(=O)O)NC(=O)[C@H](Cc2ccncc2)NC(=O)[C@H](Cc2ccc(OCC(=O)O)cc2)NC(=O)CSC[C@@H](C(=O)N[C@@H](CN)C(=O)NCCCCCCCCCCC(=O)O)NC(=O)[C@H](CO)NC(=O)[C@H](C(C)C)NC(=O)[C@H](CC2CCCCC2)NC(=O)[C@H](CCN)NC(=O)[C@@H](CC(C)C)NC(=O)[C@H](C)N(C)C(=O)[C@H](C(C)C)NC(=O)[C@H](Cc2ccc(-c3ccccc3)cc2)NC1=O [Example 1082] ({CH2CO}-Y(Carboxymethyl)[4Pal]DWL[Bip]V[NMeA][dL][Dab][Cha]VSC[Dap][Aun]-OH; thioether N-14)
2,38.8,CC[C@@H](C)[C@@H]1NC(=O)[C@H](Cc2ccc(-c3ccccc3)cc2)NC(=O)[C@H](C(C)C)NC(=O)[C@H](Cc2c[nH]c3ccccc23)NC(=O)[C@H](CC(=O)O)NC(=O)[C@H](Cc2ccc(OCC(=O)O)cc2)NC(=O)[C@H](Cc2ccncc2)NC(=O)CSC[C@@H](C(=O)N[C@H](C)C(=O)NCCOCCOCC(=O)N[C@@H](CCC(=O)NCCOCCOCC(=O)N[C@@H](CCC(=O)NCCOCCOCC(=O)N[C@@H](CCCN)C(=O)NCCCCCCCCCCC(=O)O)C(=O)O)C(=O)O)NC(=O)[C@H](CO)NC(=O)[C@H](C(C)C)NC(=O)[C@H](CC2CCCCC2)NC(=O)[C@H](CC(N)=O)NC(=O)[C@@H](CC(C)C)NC(=O)[C@H](C)N(C)C1=O [Example 2016] ({CH2CO}-[4Pal]Y(Carboxymethyl)DWV[Bip][aIle][NMeA][dL]N[Cha]VSC[dA][AEEA][γGlu][AEEA][γGlu][AEEA][Orn][Aun]-OH; thioether N-14)
3,12.2,CC(C)C[C@H]1NC(=O)[C@H](C)N(C)C(=O)[C@H](C(C)C)NC(=O)[C@H](Cc2ccc(-c3ccccc3)cc2)NC(=O)[C@H](C(C)C)NC(=O)[C@H](Cc2c[nH]c3ccccc23)NC(=O)[C@H](CC(=O)O)NC(=O)[C@H](Cc2ccc(OCC(=O)O)cc2)NC(=O)[C@H](CCCNC(=N)N)NC(=O)CSC[C@@H](C(=O)NCC(=O)NCCOCCOCC(=O)N[C@@H](CCCN)C(=O)NCCCCCCCCCCCC(=O)O)NC(=O)[C@H](CCCN)NC(=O)[C@H](C(C)C)NC(=O)[C@H](CC2CCCCC2)NC(=O)[C@H](CCN)NC1=O [Example 2160] ({CH2CO}-RY(Carboxymethyl)DWV[Bip]V[NMeA][dL][Dab][Cha]V[Orn]CG[AEEA][Orn][12Ado]-OH; thioether N-14)
4,15.2,CC(C)C[C@H]1NC(=O)[C@H](C)N(C)C(=O)[C@H](CCCNC(N)=O)NC(=O)[C@H](Cc2ccc(-c3ccccc3)cc2)NC(=O)[C@H](Cc2ccc(C(=O)O)cc2)NC(=O)[C@H](Cc2cccc(C(F)(F)F)c2)NC(=O)[C@H](CC(=O)O)NC(=O)[C@H](Cc2ccc(OCC(=O)O)cc2)NC(=O)[C@H](Cc2ccc(C(=O)O)cc2)NC(=O)CSC[C@@H](C(=O)N[C@@H](CCN)C(=O)NCCCCCCCCCCCCC(=O)O)NC(=O)[C@H](Cc2c[nH]cn2)NC(=O)[C@H](C(C)(C)O)NC(=O)[C@H](CC2CCCCC2)NC(=O)[C@H](CCN)NC1=O [Example 1149] ({CH2CO}-[Phe(4-COOH)]Y(Carboxymethyl)D[Phe(3-CF3)][Phe(4-COOH)][Bip][Cit][NMeA][dL][Dab][Cha][Val(3-OH)]HC[Dab]-{NH(CH2)12COOH}; thioether N-14)
5,15.7,CC(C)C[C@@H]1NC(=O)[C@H](Cc2c[nH]c3ccccc23)NC(=O)[C@H](CC(=O)O)NC(=O)[C@H](CCCCNC(=N)N)NC(=O)[C@H](Cc2ccc(OCC(=O)O)cc2)NC(=O)CSC[C@@H](C(=O)N[C@@H](CCCN)C(=O)NCCOCCOCC(=O)NCCCCCCCCCCC(=O)O)NC(=O)[C@H](CO)NC(=O)[C@H](C(C)C)NC(=O)[C@H](CC2CCCCC2)NC(=O)[C@H](CCN)NC(=O)[C@@H](CC(C)C)NC(=O)[C@H](C)N(C)C(=O)[C@H](C(C)C)NC(=O)[C@H](Cc2ccc(-c3ccccc3)cc2)NC1=O [Example 2140] ({CH2CO}-Y(Carboxymethyl)[hArg]DWL[Bip]V[NMeA][dL][Dab][Cha]VSC[Orn][AEEA][Aun]-OH; thioether N-14)
6,10.3,CC(=O)NCCCC[C@@H]1NC(=O)[C@H](Cc2ccc(-c3ccccc3)cc2)NC(=O)[C@H](C(C)C)NC(=O)[C@H](Cc2cccc(C)c2)NC(=O)[C@H](CC(=O)O)NC(=O)[C@H](Cc2ccc(C(=O)O)cc2)NC(=O)[C@H](Cc2ccc(OCC(=O)O)cc2)NC(=O)CSC[C@@H](C(=O)NCCOCCOCC(=O)NCCCCCCCCCCC(=O)O)NC(=O)[C@H](CCCNC(N)=O)NC(=O)[C@H](C(C)C)NC(=O)[C@H](CC2CCCCC2)NC(=O)[C@H](CCN)NC(=O)[C@@H](CC(C)C)NC(=O)[C@H](C)N(C)C1=O [Example 2295] ({CH2CO}-Y(Carboxymethyl)[Phe(4-COOH)]D[Phe(3-Me)]V[Bip]K(Ac)[NMeA][dL][Dab][Cha]V[Cit]C[AEEA][Aun]-OH; thioether N-14)
7,15.6,CC(C)C[C@H]1NC(=O)[C@H](C)N(C)C(=O)[C@H](CCCNC(N)=O)NC(=O)[C@H](Cc2ccc(-c3ccccc3)cc2)NC(=O)[C@H](Cc2ccc(C(=O)O)cc2)NC(=O)[C@H](Cc2cccc(C(F)(F)F)c2)NC(=O)[C@H](CC(=O)O)NC(=O)[C@H](Cc2ccc(OCC(=O)O)cc2)NC(=O)[C@H](CN2CCOCC2)NC(=O)CSC[C@@H](C(=O)N[C@@H](CCN)C(=O)NCCCCCCCCCCCCC(=O)O)NC(=O)[C@H](CC(=O)O)NC(=O)[C@H](C(C)(C)O)NC(=O)[C@H](CC2CCCCC2)NC(=O)[C@H](CCN)NC1=O [Example 1154] ({CH2CO}-[Ala(morpholin-4-yl)]Y(Carboxymethyl)D[Phe(3-CF3)][Phe(4-COOH)][Bip][Cit][NMeA][dL][Dab][Cha][Val(3-OH)]DC[Dab]-{NH(CH2)12COOH}; thioether N-14)
8,26.6,Cc1cccc(C[C@@H]2NC(=O)[C@H](CC(=O)O)NC(=O)[C@H](Cc3ccc(OCC(=O)O)cc3)NC(=O)[C@H](CCCNC(=N)N)NC(=O)CSC[C@@H](C(=O)N[C@@H](CCN)C(=O)NCCCCCCCCCCC(=O)O)NC(=O)[C@@H](CO)NC(=O)[C@H](C(C)C)NC(=O)[C@H](CC3CCCCC3)NC(=O)[C@H](CCN)NC(=O)[C@@H](CC(C)C)NC(=O)[C@H](C)N(C)C(=O)[C@H](Cc3ccc(OCC(=O)O)cc3)NC(=O)[C@H](Cc3ccc(-c4ccccc4)cc3)NC(=O)[C@H](C(C)C)NC2=O)c1 [Example 1266] ({CH2CO}-RY(Carboxymethyl)D[Phe(3-Me)]V[Bip]Y(Carboxymethyl)[NMeA][dL][Dab][Cha]V[dS]C[Dab][Aun]-OH; thioether N-14)

# Same assay, conditions: PE-labeled PD-L1-Ig 20 nM final, Jurkat-hPD-1 cells; read-out: Jurkat HPD1 PDL1 IC50
row,IC50 [nM],SMILES
1,108,Cc1cccc(C[C@@H]2NC(=O)[C@H](CC(=O)O)NC(=O)[C@H](Cc3ccc(C(F)(F)F)cc3)NC(=O)[C@H](C(C)O)NC(=O)CSC[C@@H](C(=O)N[C@@H](CCN)C(=O)NCCCCCCCCCCC(=O)O)NC(=O)[C@H](C(C)O)NC(=O)[C@H](C(C)C)NC(=O)[C@H](CC3CCCCC3)NC(=O)[C@H](CCN)NC(=O)[C@@H](CC(C)C)NC(=O)[C@H](C)N(C)C(=O)[C@H](Cc3ccc(C(=O)O)cc3)NC(=O)[C@H](Cc3ccc(-c4ccccc4)cc3)NC(=O)[C@H](Cc3ccc(C(=O)O)cc3)NC2=O)c1 (stereo partly drawn) [Example 2571] ({CH2CO}-[Thr(3ξ)][Phe(4-CF3)]D[Phe(3-Me)][Phe(4-COOH)][Bip][Phe(4-COOH)][NMeA][dL][Dab][Cha]V[Thr(3ξ)]C[Dab][Aun]-OH; thioether N-14)
2,17.5,Cc1cccc(C[C@@H]2NC(=O)[C@H](CC(=O)O)NC(=O)[C@H](Cc3ccc(OCC(=O)O)cc3)NC(=O)[C@H](CCN)NC(=O)CSC[C@@H](C(=O)N[C@@H](CCN)C(=O)NCCOCCOCC(=O)NCCCCCCCCCCC(=O)O)NC(=O)[C@H](Cc3cnc[nH]3)NC(=O)[C@H](C(C)(C)O)NC(=O)[C@H](CC3CCCCC3)NC(=O)[C@H](CCN)NC(=O)[C@@H](CC(C)C)NC(=O)[C@H](C)N(C)C(=O)[C@H](Cc3ccc(OCC(=O)O)cc3)NC(=O)[C@H](Cc3ccc(-c4ccccc4)cc3)NC(=O)[C@H](Cc3ccc(OCC(=O)O)cc3)NC2=O)c1 [Example 2551] ({CH2CO}-[Dab]Y(Carboxymethyl)D[Phe(3-Me)]Y(Carboxymethyl)[Bip]Y(Carboxymethyl)[NMeA][dL][Dab][Cha][Val(3-OH)]HC[Dab][AEEA][Aun]-OH; thioether N-14)
3,3.3,CC(=O)NCCCC[C@@H]1NC(=O)[C@H](C(C)(C)O)NC(=O)[C@H](CC2CCCCC2)NC(=O)[C@H](CCN)NC(=O)[C@@H](CC(C)C)NC(=O)[C@H](C)N(C)C(=O)[C@H](CCC(N)=O)NC(=O)[C@H](Cc2ccc(-c3ccccc3)cc2)NC(=O)[C@H](Cc2ccc(C(=O)O)cc2)NC(=O)[C@H](Cc2cccc(C(F)(F)F)c2)NC(=O)[C@H](CC(=O)O)NC(=O)[C@H](Cc2ccc(OCC(=O)O)cc2)NC(=O)[C@H](Cc2ccc(OCC(=O)O)cc2)NC(=O)CSC[C@@H](C(=O)N[C@@H](CCN)C(=O)NCCCCCCCCCCCCC(=O)O)NC1=O [Example 2565] ({CH2CO}-Y(Carboxymethyl)Y(Carboxymethyl)D[Phe(3-CF3)][Phe(4-COOH)][Bip]Q[NMeA][dL][Dab][Cha][Val(3-OH)]K(Ac)C[Dab]-{NH(CH2)12COOH}; thioether N-14)
4,168,CC(=O)NCCCC[C@@H]1NC(=O)[C@H](C(C)(C)O)NC(=O)[C@H](CC2CCCCC2)NC(=O)[C@H](CCN)NC(=O)[C@@H](CC(C)C)NC(=O)[C@H](C)N(C)C(=O)[C@H](CCC(N)=O)NC(=O)[C@H](Cc2ccc(-c3ccccc3)cc2)NC(=O)[C@H](Cc2ccc(C(=O)O)cc2)NC(=O)[C@H](Cc2cccc(C(F)(F)F)c2)NC(=O)[C@H](CC(=O)O)NC(=O)[C@H](Cc2ccc(OCC(=O)O)cc2)NC(=O)[C@H](Cc2ccc(OCC(=O)O)cc2)NC(=O)CSC[C@@H](C(=O)N[C@@H](CCN)C(=O)NCCOCCOCC(=O)NCCOCCOCC(=O)NCCCCCCCCCCCCCCC(=O)O)NC1=O [Example 2608] ({CH2CO}-Y(Carboxymethyl)Y(Carboxymethyl)D[Phe(3-CF3)][Phe(4-COOH)][Bip]Q[NMeA][dL][Dab][Cha][Val(3-OH)]K(Ac)C[Dab][AEEA][AEEA]-{NH(CH2)14COOH}; thioether N-14)
